# In patent US7985755B2, “2,4-diaminoquinazolines for spinal muscular atrophy” (Families of Spinal Muscular Atrophy, priority 2006, dated 2011):
# Counter-ions that a name gives are not always drawn.
# Tested on: SMN2 promoter
# Test: SMN2 promoter assay in NSC-34 cells (β-lactamase reporter)
# Assay type: cell-based, mouse
# Settings: Mus musculus, Table 1, SMN2 promoter driving β-lactamase, 12 point dose curve, read-out: Promoter Assay EC50
# Text: All compounds were screened using an in vitro based SMN2 promoter assay. We used NSC-34 cells, a hybrid cell line between mouse spinal cord cells and mouse neuroblastoma cells. NSC-34 cells harbor an expression plasmid containing a 3.4 kb promoter fragment of the SMN2 gene driving β-lactamase expression.
# […] […] CCF2-AM diffuses across the plasma membrane and is converted into an active β-lactamase substrate by cytoplasmic esterase. […] The fold induction is proportional to the extent of β-lactamase produced and in turn proportional to SMN2 promoter activation for a given compound relative to vehicle (DMSO) control. […] These values are used to rank activities of the compounds and derive structure activity relationship.
row,EC50,SMILES
1,< 1000 nM,"Nc1nc(N)c2c(OCC3CCN(Cc4ccc(Cl)cc4)CC3)cccc2n1 [Example-004, 5-[1-(4-Chlorobenzyl)piperidin-4-ylmethoxy]quinazoline-2,4-diamine hydrochloride]"
2,< 1000 nM,"Nc1nc(N)c2c(OCC3(S(=O)(=O)c4cccc(Cl)c4)CCNCC3)cccc2n1 [Example-026, 5-[4-(3-Chlorobenzenesulfonyl)piperidin-4-ylmethoxy]quinazoline-2,4-diamine]"

# Same assay, conditions: Mus musculus, Table 3, SMN2 promoter driving β-lactamase, read-out: Promoter Assay EC50
row,EC50,SMILES
1,< 1000 nM,"Nc1nc(N)c2c(OCC3CCN(c4ccccc4Cl)CC3)cccc2n1 [Example-163, 5-[1-(2-Chlorophenyl)piperidin-4-ylmethoxy]quinazoline-2,4-diamine]"

# Same assay, conditions: Mus musculus, Table 4, SMN2 promoter driving β-lactamase, read-out: Promoter Assay EC50 for 2391.003C(P)
row,EC50,SMILES
1,< 1000 nM,"Nc1nc(N)c2c(N3CCN(Cc4ccc(Cl)cc4)CC3)cccc2n1 [Example-173, 5-[4-(4-Chloro-benzyl)-piperazin-1-yl]-quinazoline-2,4-diamine]"
2,< 1000 nM,"Nc1nc(N)c2c(N3CCN(Cc4ccc(F)cc4F)CC3)cccc2n1 [Example-177, 5-[4-(2,4-Difluoro-benzyl)-piperazin-1-yl]-quinazoline-2,4-diamine]"
3,1000 to 5000 nM,"Nc1nc(N)c2c(N3CCN(Cc4ccccc4F)CC3)cccc2n1 [Example-176, 5-[4-(2-Fluoro-benzyl)-piperazin-1-yl]-quinazoline-2,4-diamine]"

# Same assay, conditions: Mus musculus, Table 6, SMN2 promoter driving β-lactamase, read-out: Promoter Assay EC50
row,EC50,SMILES
1,< 1000 nM,"CC(C)(Oc1cccc2nc(N)nc(N)c12)C1CCN(Cc2c(Cl)cccc2Cl)CC1 [Example-224, 5-{1-[1-(2,6-Dichloro-benzyl)-piperidin-4-yl]-1-methyl-ethoxy}-quinazoline-2,4-diamine]"
2,1000 to 5000 nM,Nc1nc(N)c2c(OCC3CC[N+]([O-])(Cc4ccccc4F)CC3)cccc2n1 (stereo not shown) [Examplc-221]

# Same assay, conditions: Table 1, SMN2 promoter driving β-lactamase, 12 point dose curve, read-out: Promoter Assay EC50
row,SMILES,EC50
1,Nc1nc(N)c2c(OCC3CCN(S(=O)(=O)c4ccccc4C(F)(F)F)CC3)cccc2n1 [Example-087],< 1000 nM
2,CC1CCC(C(=O)N2CCC(COc3cccc4nc(N)nc(N)c34)CC2)CC1 (stereo not shown) [Example-049],< 1000 nM
3,Nc1nc(N)c2c(OCC3CCN(C(=O)c4cc(F)ccc4F)CC3)cccc2n1 [Example-052],< 1000 nM
4,Nc1nc(N)c2c(OCC3CCN(C(=O)c4ccc(C(F)(F)F)nc4)CC3)cccc2n1 [Example-071],< 1000 nM
5,COc1ccc(C(=O)N2CCC(COc3cccc4nc(N)nc(N)c34)CC2)cc1 [Example-056],< 1000 nM
6,Nc1nc(N)c2c(OCC3CCN(S(=O)(=O)c4ccc(C(F)(F)F)cc4)CC3)cccc2n1 [Example-082],< 1000 nM
7,Nc1nc(N)c2c(OCC3CCN(C(=O)c4ccc(F)cc4)CC3)cccc2n1 [Example-062],< 1000 nM

# Next, values leading:
row,EC50,SMILES
1,< 1000 nM,Nc1nc(N)c2c(OCC3CCN(S(=O)(=O)c4cccc(Cl)c4Cl)CC3)cccc2n1 [Example-078]
2,< 1000 nM,Nc1nc(N)c2c(OCC3CCN(S(=O)(=O)c4ccc(Cl)s4)CC3)cccc2n1 [Example-074]
3,< 1000 nM,Nc1nc(N)c2c(OCC3CCN(Cc4cc(Cl)nc(Cl)c4)CC3)cccc2n1 [Example-093]
4,1000 to 5000 nM,Cn1ccnc1CN1CCC(COc2cccc3nc(N)nc(N)c23)CC1 [Example-152]
5,< 1000 nM,Nc1nc(N)c2c(OCC3CCN(Cc4ccc(C(F)(F)F)cc4)CC3)cccc2n1 [Example-123]
6,< 1000 nM,Cc1noc(C)c1CN1CCC(COc2cccc3nc(N)nc(N)c23)CC1 [Example-091]
7,< 1000 nM,Nc1nc(N)c2c(OCC3CCN(C(=O)c4cc(Cl)cc(Cl)c4)CC3)cccc2n1 [Example-054]
8,< 1000 nM,Nc1nc(N)c2c(OCC3CCN(Cc4cccc5ccccc45)CC3)cccc2n1 [Example-005]
9,< 1000 nM,Nc1nc(N)c2c(OCC3CCN(S(=O)(=O)c4c(Cl)cccc4Cl)CC3)cccc2n1 [Example-085]
10,< 1000 nM,Nc1nc(N)c2c(OCC3CCN(Cc4ccc(I)cc4)CC3)cccc2n1 [Example-044]
11,< 1000 nM,CS(=O)(=O)c1ccc(CN2CCC(COc3cccc4nc(N)nc(N)c34)CC2)cc1 [Example-047]
12,< 1000 nM,Nc1nc(N)c2c(OCC3CCN(Cc4cccs4)CC3)cccc2n1 [Example-135]
13,< 1000 nM,Nc1nc(N)c2c(OCC3CCN(Cc4cccc(C(F)(F)F)c4)CC3)cccc2n1 [Example-130]
